60 molecules from the METLIN SMRT retention time set (Domingo-Almenara et al. 2019) can be followed below.

The series in a line: gradient 5% acetonitrile 3 min, to 50% in 2 min, to 85% in 15 min, held 3 min, 100 µL/min. As to conditions: column: Zorbax Extend-C18 2.1 x 50 mm; eluents: water / acetonitrile, 0.1% formic acid. Summed up:
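Pure standards were analyzed in mixtures of ~100 molecules using HPLC coupled to a quadrupole time-of-flight mass spectrometer, in both positive and negative ionization mode. Separation used a Zorbax Extend-C18 column (2.1 × 50 mm, 1.8 μm) at 100 μL/min, with water and acetonitrile each containing 0.1% formic acid. Dead and dwell volumes were 40 μL and 900 μL, and data were collected over 3 months. Retention time was read from computationally picked adduct peaks, each inspected manually.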
`CCc1ccc(-c2csc(Cc3nc(-c4ccc5c(c4)OCO5)no3)n2)cc1`: the RP-LC retention time came to 1300 s. As to `Cc1ccc2c(C(=O)N3CCCCC3)cc(NC(=O)C3CCC3)cc2n1`, the RP-LC retention time was 632 s.

Consider `Cc1cc(C2CCCN2C(=O)Cc2cccc(F)c2)no1` (stereo not given), for which the RP-LC retention time worked out at 790 s. `Cc1nn(C)c(C)c1CCN(C)C(=O)CC1=C2CCCCC2N(C(C)C)C1=O` (stereo not given) gave an RP-LC retention time of 648 s.

`Cc1nnc(-c2coc(S(=O)(=O)N3CCN(c4ccccn4)CC3)c2)o1` displayed an RP-LC retention time of 606 s. Turning to `Cc1cc(Cl)ccc1NC1=NS(=O)(=O)c2ccccc21`, the RP-LC retention time amounted to 834 s.

In the case of `COc1ccc(CNC(=O)Cc2nnc(-c3ccc4ncccc4c3)o2)cc1OC`, the RP-LC retention time was found to be 646 s. For `O=C(NCCN1CCOCC1)C1CCN(S(=O)(=O)c2ccc(-c3noc(C4CC4)n3)cc2)CC1`, the RP-LC retention time is 642 s. To `O=C1COc2ccc(Cl)cc2N1Cc1nc(-c2ccc(N3CCOCC3)cc2)no1` belongs 1000 s. `O=C(Cn1nc2c3cc(-c4ccc(F)cc4)nn3ccn2c1=O)N1CCCC1` gave an RP-LC retention time of 758 s.

`COc1ccc(C(=O)N2CCc3cc(-c4csc(C)n4)ccc32)c(OC)c1` registered an RP-LC retention time of 965 s. `Cc1cc(S(=O)(=O)N2CC[C@H](n3c(=O)n(C)c4cccnc43)C2)ccc1F` registered an RP-LC retention time of 864 s. Molecule `CCOC(=O)C1CCN(C(=O)C2(c3ccc(NS(C)(=O)=O)cc3)CCCCC2)CC1` registered an RP-LC retention time of 894 s. As for `COc1ccc(-c2nnc(N3CCC(C(=O)N4CCC5(CC4)OCCO5)CC3)o2)cc1`, the figure is 704 s.

For the molecule `COc1ccc2nc(NC(=O)Nc3ccccc3)sc2c1`, the RP-LC retention time was 966 s. As to `CC(=O)N1CCc2cc(-c3ccc(C(=O)NCCN4CCCCC4)cc3)ccc21`, the RP-LC retention time worked out at 616 s. The molecule `CCC(C)N(CCNC(=O)c1cc(C)nn1-c1ccccc1)C1CCCCC1` (stereo not given) returned an RP-LC retention time of 684 s. Turning to `CCc1ccc(OCC(=O)Nc2nnc(C3CC(=O)N(c4ccc(F)cc4)C3)o2)cc1` (stereo not given), the RP-LC retention time is 849 s. For the molecule `O=C(NCCNc1cc(-n2cccn2)ncn1)c1c[nH]c2ccccc12`, the RP-LC retention time worked out at 646 s. `CCc1ccc(-c2nc(-c3ccc4c(c3)N(CC)C(=O)CO4)no2)cc1`: the RP-LC retention time was determined as 1320 s.

With `Cc1cccc(S(=O)(=O)N2CCCC(Cn3c(C4CC4)nc4cccnc43)C2)c1` (stereo not given), the RP-LC retention time was determined as 791 s. Molecule `Cc1nc(-c2ccc(N3CCN(C(=O)c4ccc(F)c(F)c4)CC3)nc2)sc1C` showed an RP-LC retention time of 976 s. In the case of `CCn1cc(S(=O)(=O)N2CCC(c3noc(COCC4CC4)n3)CC2)cn1`, the RP-LC retention time turned out to be 841 s. As for `COc1ccc(-c2nnc(Cc3nc(-c4ccc(OC)c(F)c4)no3)o2)cc1`, the figure is 1040 s; as for `COc1cccc(-c2noc(C3CCCN3C(=O)Nc3cccc(C#N)c3)n2)c1` (stereo not given), 927 s; as for `CC(C)N1CCCn2cc(S(=O)(=O)Nc3cccc(OC(F)(F)F)c3)cc2C1=O`, 881 s.

`CCc1ccc(S(=O)(=O)N2CCn3c(nnc3C3CCN(C(C)C)C3)C2)cc1` (stereo not given) came in with an RP-LC retention time of 571 s. Turning to `CCN(CC)CCNC(=O)c1sc2ncn(CC(=O)N3CC(C)CC(C)C3)c(=O)c2c1C` (stereo not given), the RP-LC retention time was determined as 658 s. `CC(C)CCNC(=O)N(C)Cc1nc2cc(C(=O)NC(C)C)ccc2n1C` yielded an RP-LC retention time of 626 s. To `Cn1cccc1C(=O)C(=O)Nc1ccc(F)cc1Cl` belongs 1070 s; to `O=C(c1ccc(-n2cccn2)nc1)N1CCCCC1`, 732 s. With `COC[C@@H]1CN(c2cnccn2)C[C@H]1C(=O)NCCn1ccnc1`, the RP-LC retention time was 498 s. The molecule `Cc1ccc(NC(=O)N2CCC(N3CCN(Cc4ccccc4)C(=O)C3=O)CC2)cc1Cl` returned an RP-LC retention time of 809 s. `O=C(c1ccoc1)N1CCc2[nH]cnc2C1c1ccccc1` (stereo not given) gave an RP-LC retention time of 585 s.

On to `Cc1c(-c2noc(-c3ccccc3F)n2)nnn1Cc1cccc(F)c1`, for which the RP-LC retention time came out at 1050 s. To `CC(=O)N1CCC(c2nc(C)c(C(=O)O)s2)CC1` belongs 588 s; to `COc1ccc(-c2cc3nc(C)cc(N4CCN(c5ccccn5)CC4)n3n2)cc1OC`, 583 s. The molecule `CCN1CCN(S(=O)(=O)c2cccc(-c3nc(-c4ccc(C)cc4)no3)c2)CC1` gave an RP-LC retention time of 786 s. As for `CCN(CC)C(=O)N1CC(Cn2c(C)cnc2-c2ccncc2)C1`, the figure is 568 s.

Molecule `COc1ncc(C(=O)Nc2cc(C)ccc2C)c(C)n1` gave an RP-LC retention time of 748 s. Molecule `COc1ccc(S(=O)(=O)N2CCCC(c3nn[nH]n3)C2)cc1` (stereo not given) registered an RP-LC retention time of 714 s. `CCc1ccc(Nc2cc(C(=O)N3CCCCC3)nc3cc(OC)c(OC)cc23)cc1` gave an RP-LC retention time of 766 s.

For `Cc1cc(C)cc(C(=O)Nc2ccc3c(c2)Sc2ncccc2C(=O)N3C(C)C)c1`, the RP-LC retention time came out at 1030 s.

With `COc1ccc(Cl)cc1C(=O)Nc1ccc(-c2cn3ccc(C)nc3n2)cc1`, the RP-LC retention time stood at 727 s.

For `CN1C(=O)C(c2c[nH]c3ccccc23)=C(c2c[nH]c3ccccc23)C1=O`, the RP-LC retention time was 868 s. On to `O=c1c2cc(-c3ccc(F)cc3)nn2cnn1Cc1nc(-c2ccccc2Cl)no1`, for which the RP-LC retention time came out at 1110 s. As for `COC(=O)c1ccc(Cl)cc1NC(=O)N1CCCn2nc(-c3cccs3)cc2C1`, the figure is 1120 s; as for `COc1ccccc1-n1nnc(C(=O)NCc2nc3ccccc3n2C)c1-c1ccccn1`, 574 s; as for `O=C1C(NS(=O)(=O)c2ccc(C(F)(F)F)cc2)CCN1c1ccc(F)cc1` (stereo not given), 964 s. To `Cc1noc(C)c1CNC(=O)COc1ccc(F)cc1` belongs 711 s; to `Cc1cc2nc(C(=O)Nc3ccc(F)c(Cl)c3)cc(C)n2n1`, 1080 s; to `O=c1c2nc(-c3ccc4c(c3)OCO4)cn2ccn1-c1ccc(Cl)cc1`, 834 s.

Molecule `Cc1noc(C)c1-c1ccc(S(=O)(=O)NC2CCCc3ccccc32)cc1` (stereo not given) returned an RP-LC retention time of 1040 s. In turn, `CCCNC(=O)Cn1c(C2CCCO2)nc2ccccc21` (stereo not given) gave an RP-LC retention time of 593 s.

Turning to `CCN1c2ccccc2C(=O)NC12CCN(C(=O)c1cc(OC)cc(OC)c1)CC2`, the RP-LC retention time is 771 s.

As to `CCCC(NC(=O)c1cc(F)cc(F)c1)C(=O)Nc1nc2ccccc2[nH]1` (stereo not given), the RP-LC retention time is 733 s. Molecule `Cc1cc(C)c2nc(C)cc(C(=O)NC(C)C)c2c1` displayed an RP-LC retention time of 650 s. For `Cc1oc(-c2[nH]ncc2C(=O)N2CCCC2)cc1S(=O)(=O)NCc1cccc(F)c1`, the RP-LC retention time is 706 s.

Molecule `Cc1csc(NC(=O)C2CCCN(c3ncnc4c3nc3n4CCCCC3)C2)n1` (stereo not given) yielded an RP-LC retention time of 756 s. Turning to `Fc1cccc(Cl)c1CN1CC(c2nc(C3CC3)no2)C1`, the RP-LC retention time was 564 s.
